# From patent US11982675B2, “Method of assessing ABC transporter activity using fluorescent dye accumulation assay” (CELLPHARMA KFT., priority 2017, dated 2024)
# Numbering of substitutions follows the chain as printed.
# Experiments:
# Type in all cases: cell-based
# [1] = system: human peripheral blood mononuclear cells (PBMCs); experiment: Functional test of ABCG2, ABCB1 or ABCC1 transporter function in PBMCs
# Protocol: Freshly drawn venous blood samples were collected from healthy donors into EDTA coated tubes. Peripheral blood mononuclear cells (PBMCs) were isolated by Ficoll-histopaque density gradient centrifugation. The PBMCs were washed twice with 1 mL EDTA-DPBS uptake buffer (1 mM EDTA and 1 g/L D-glucose with phosphate buffered saline). The various cell populations can be stained with cluster of differentiation markers (CD markers), conjugated by e.g. APC, APC-Cy7, Pacific blue, or other fluorescent marker. After CD labeling the cells were incubated in the uptake buffer with 1 μM PhenGreen SK diacetate (PGD), or 0.25 μM Calcein-AM (CaAM) or 1 μM mitoxantrone (Mx), with or without selective transporter inhibitors, for 30 minutes (PGD and CaAM) or 60 minutes (Mx) at 37° C. […] The reaction was stopped by the addition of ice-cold EDTA-DPBS and fluorescence was measured as described above.
# […] cell populations, i.e. granulocytes, monocytes and lymphocytes have been visualized by flow cytometry as described in the Materials and Methods chapter (Panel A). […] MDR activity factors were calculated as described above based on the measurements of the accumulation of the three fluorescent dyes, with or without inhibitors, in the respective leukocyte populations (Panel C).
# ABCG2 [2] = target: T1, ABCG2 (Homo sapiens, UniProt Q9UNQ0); experiment: PhenGreen (PG) accumulation by flow cytometry, ABCG2-expressing PLB and A431 cells; parameters: expressed in transfected cells; host or cells: PLB-985 and A431 cells (retroviral transduction)
# T1 sequence (Q9UNQ0 1-655): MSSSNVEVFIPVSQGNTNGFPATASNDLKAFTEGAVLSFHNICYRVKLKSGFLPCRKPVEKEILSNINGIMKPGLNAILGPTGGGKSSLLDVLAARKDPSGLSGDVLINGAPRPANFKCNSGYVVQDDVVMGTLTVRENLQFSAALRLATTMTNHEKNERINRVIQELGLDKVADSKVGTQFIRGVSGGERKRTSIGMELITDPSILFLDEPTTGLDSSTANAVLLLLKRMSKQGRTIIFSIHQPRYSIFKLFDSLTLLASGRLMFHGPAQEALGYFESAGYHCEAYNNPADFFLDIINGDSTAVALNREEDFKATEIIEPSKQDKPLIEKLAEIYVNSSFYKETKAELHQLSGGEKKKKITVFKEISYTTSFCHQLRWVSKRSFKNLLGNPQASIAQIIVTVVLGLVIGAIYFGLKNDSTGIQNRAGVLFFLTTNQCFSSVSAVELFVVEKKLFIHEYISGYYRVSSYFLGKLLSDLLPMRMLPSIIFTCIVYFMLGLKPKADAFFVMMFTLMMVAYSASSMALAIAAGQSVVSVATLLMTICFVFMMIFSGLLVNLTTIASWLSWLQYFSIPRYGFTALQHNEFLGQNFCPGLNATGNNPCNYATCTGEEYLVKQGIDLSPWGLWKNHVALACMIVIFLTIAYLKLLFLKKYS
# Protocol: In order to follow the time-dependent accumulation of PG, 5×10^5 cells were washed twice with 1 mL DPBS (1 g/L D-glucose with phosphate buffered saline), then pre-incubated in the uptake buffer (1 mM EDTA in DPBS) for 10 minutes at 37° C. Thereafter the cells were incubated in the uptake buffer with various concentrations of PhenGreen SK diacetate (PGD), with or without transporter inhibitor, at 37° C., for 1-60 minutes. Dye uptake was stopped by the addition of 150 μl ice-cold EDTA-DPBS, the cells were kept on ice until the measurements (see FIG. 12.). For assessing the PGD concentration dependence of PG accumulation, 5×10^5 PLB-985 or A431 cells, expressing the ABCB1 or ABCG2 transporters, or HL-60 and HEK-293 cells, expressing ABCC1, were washed twice with 1 mL DPBS, then pre-incubated in EDTA-DPBS medium for 10 minutes at room temperature. The cells were incubated in EDTA-DPBS with 0.1-5 μM of PGD at 37° C. for 30 minutes. Dye uptake was stopped by the addition of 150 μl ice-cold EDTA-DPBS. The cells were kept on ice until the measurement.
# (§1) The cells (5×10^5) were incubated with 0.5 μM PGD or 1 μM (Mx) with or without inhibitors, for 30 (PGD) or 60 (Mx) minutes at 37° C. The reaction was stopped by the addition of ice-cold EDTA-DPBS and fluorescence was measured as described above.
# All experiments were performed at least three times. Data analysis was performed using FACSDiva v6.1.3 Software (BD Bioscience, San Jose, CA), flow cytometry figures were prepared with the Attune Acoustic Focusing Cytometer v1.25 Software (Applied Biosystems, Life Technologies, Carlsbad, CA, USA). Results were expressed as median±standard deviation. The MDR activity factor % (MAF %—see refs [Homolya L et al. Br J Cancer. 1996; Holló Z et al. Anticancer Res. 1998; 18: 2981-7., Sarkadi et al. U.S. Pat. No. 5,872,014 1999]) was calculated as follows: MAF %=(((MFIinh−MFI0)/MFIinh)×100), wherein MFIinh and MFI0 are the median fluorescence intensity (MFI) with (inh) or without (0) inhibitor. The EC50 analysis was carried out using the Origin 8.6. software.
# ABCB1 = target: T2, ABCB1 (Homo sapiens, UniProt P08183); experiment: PhenGreen (PG) accumulation by flow cytometry, ABCB1-expressing PLB and A431 cells
# T2 construct: expressed in transfected cells; host or cells: PLB-985 and A431 cells (retroviral transduction)
# T2 sequence (P08183 whole entry): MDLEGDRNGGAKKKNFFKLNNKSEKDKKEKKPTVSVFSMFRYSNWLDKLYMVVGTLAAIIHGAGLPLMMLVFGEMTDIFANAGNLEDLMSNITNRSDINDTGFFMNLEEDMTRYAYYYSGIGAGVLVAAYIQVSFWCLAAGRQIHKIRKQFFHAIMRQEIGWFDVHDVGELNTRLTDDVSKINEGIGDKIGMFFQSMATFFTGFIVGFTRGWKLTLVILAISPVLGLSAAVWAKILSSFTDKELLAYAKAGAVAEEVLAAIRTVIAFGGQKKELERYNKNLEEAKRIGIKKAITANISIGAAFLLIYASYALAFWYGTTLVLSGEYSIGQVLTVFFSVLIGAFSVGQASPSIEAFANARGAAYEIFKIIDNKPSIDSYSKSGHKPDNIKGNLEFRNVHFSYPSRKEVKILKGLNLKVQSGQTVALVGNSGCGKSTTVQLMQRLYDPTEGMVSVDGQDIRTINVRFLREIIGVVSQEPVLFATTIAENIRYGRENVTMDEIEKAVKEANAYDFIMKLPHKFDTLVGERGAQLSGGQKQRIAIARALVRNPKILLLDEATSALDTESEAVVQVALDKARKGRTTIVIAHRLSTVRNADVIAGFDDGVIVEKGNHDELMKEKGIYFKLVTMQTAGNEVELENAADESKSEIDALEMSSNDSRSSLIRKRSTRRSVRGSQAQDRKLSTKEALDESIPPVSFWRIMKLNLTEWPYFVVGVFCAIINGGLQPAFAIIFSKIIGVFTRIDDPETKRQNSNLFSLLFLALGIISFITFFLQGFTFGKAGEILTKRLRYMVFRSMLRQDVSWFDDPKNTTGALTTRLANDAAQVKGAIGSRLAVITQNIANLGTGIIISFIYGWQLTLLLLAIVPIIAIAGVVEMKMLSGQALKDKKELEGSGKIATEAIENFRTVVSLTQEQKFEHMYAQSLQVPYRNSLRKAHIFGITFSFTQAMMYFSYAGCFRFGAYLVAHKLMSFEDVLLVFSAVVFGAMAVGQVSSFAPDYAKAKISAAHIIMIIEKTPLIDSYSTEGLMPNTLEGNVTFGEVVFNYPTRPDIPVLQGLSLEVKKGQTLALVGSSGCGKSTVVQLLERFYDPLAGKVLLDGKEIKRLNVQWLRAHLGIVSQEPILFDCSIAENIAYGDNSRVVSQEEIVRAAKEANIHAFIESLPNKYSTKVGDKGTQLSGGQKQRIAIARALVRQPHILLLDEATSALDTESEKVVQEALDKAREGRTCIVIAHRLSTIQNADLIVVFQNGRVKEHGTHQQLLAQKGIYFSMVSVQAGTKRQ
# Protocol: (§2) In order to follow the time-dependent accumulation of PG, 5×10^5 cells were washed twice with 1 mL DPBS (1 g/L D-glucose with phosphate buffered saline), then pre-incubated in the uptake buffer (1 mM EDTA in DPBS) for 10 minutes at 37° C. Thereafter the cells were incubated in the uptake buffer with various concentrations of PhenGreen SK diacetate (PGD), with or without transporter inhibitor, at 37° C., for 1-60 minutes. Dye uptake was stopped by the addition of 150 μl ice-cold EDTA-DPBS, the cells were kept on ice until the measurements (see FIG. 12.). […]
# as §1
# (§3) All experiments were performed at least three times. […] Results were expressed as median±standard deviation. The MDR activity factor % (MAF %—see refs [Homolya L et al. Br J Cancer. 1996; Holló Z et al. Anticancer Res. 1998; 18: 2981-7., Sarkadi et al. U.S. Pat. No. 5,872,014 1999]) was calculated as follows: MAF %=(((MFIinh−MFI0)/MFIinh)×100), wherein MFIinh and MFI0 are the median fluorescence intensity (MFI) with (inh) or without (0) inhibitor. […]
# PLB, HEK or A431 cells = experiment: Cell viability assay after PGD loading; conditions: PGD loading 30 min at 37° C.; PLB cells counted for 9 days, HEK or A431 cells cultured 72 hours
# Protocol: Control and ABCG2 expressing PLB-985 cells (1×10^6) were pre-incubated in the uptake buffer for 10 minutes at 37° C., then incubated with or without 0.5 μM PGD for 30 minutes at 37° C. The PGD-treated cells were sorted based on PG fluorescence by FACS Aria III Cell sorter (BD Bioscience, San Jose, CA, with 488 nm blue laser excitation and 530/30 nm emission). The sorted cells were suspended in 3 mL RMPI media in 6 well plates and live cell number was measured each day, dead cells were excluded by TO-PRO™-3 Iodide.
# In order to estimate the EC50 values, HEK or A431 cells were treated with […] for 30 min at 37° C. in the EDTA-DPBS buffer, then washed and cultured in 2 mL DMEM media in 12 well plates for 72 hours. […]
# In the first set of these experiments (FIG. 7, Panel A) we used control and ABCG2 expressing PLB cells, incubated in the PGD loading media with or without 0.5 μM PGD for 30 minutes at 37° C. The PGD-treated cells were then sorted based on PG fluorescence by flow cytometry, and the cells were resuspended in RPMI media. […]
# In the second set of experiments HEK or A431 cells were treated with the indicated concentrations of PGD for 30 min at 37° C. in the loading media, then washed and cultured in normal cell culturing media for 72 hours. Live cell number was determined by flow cytometry, dead cells excluded by TO-PRO-3 staining (see Methods). […]
# ABCC1 = target: T3, ABCC1 (Homo sapiens, UniProt P33527); experiment: PhenGreen (PG) accumulation by flow cytometry, ABCC1-expressing HL-60 and HEK cells
# T3 construct: expressed in transfected cells; host or cells: HL-60 and HEK-293 cells (retroviral transduction)
# T3 sequence (P33527 whole entry): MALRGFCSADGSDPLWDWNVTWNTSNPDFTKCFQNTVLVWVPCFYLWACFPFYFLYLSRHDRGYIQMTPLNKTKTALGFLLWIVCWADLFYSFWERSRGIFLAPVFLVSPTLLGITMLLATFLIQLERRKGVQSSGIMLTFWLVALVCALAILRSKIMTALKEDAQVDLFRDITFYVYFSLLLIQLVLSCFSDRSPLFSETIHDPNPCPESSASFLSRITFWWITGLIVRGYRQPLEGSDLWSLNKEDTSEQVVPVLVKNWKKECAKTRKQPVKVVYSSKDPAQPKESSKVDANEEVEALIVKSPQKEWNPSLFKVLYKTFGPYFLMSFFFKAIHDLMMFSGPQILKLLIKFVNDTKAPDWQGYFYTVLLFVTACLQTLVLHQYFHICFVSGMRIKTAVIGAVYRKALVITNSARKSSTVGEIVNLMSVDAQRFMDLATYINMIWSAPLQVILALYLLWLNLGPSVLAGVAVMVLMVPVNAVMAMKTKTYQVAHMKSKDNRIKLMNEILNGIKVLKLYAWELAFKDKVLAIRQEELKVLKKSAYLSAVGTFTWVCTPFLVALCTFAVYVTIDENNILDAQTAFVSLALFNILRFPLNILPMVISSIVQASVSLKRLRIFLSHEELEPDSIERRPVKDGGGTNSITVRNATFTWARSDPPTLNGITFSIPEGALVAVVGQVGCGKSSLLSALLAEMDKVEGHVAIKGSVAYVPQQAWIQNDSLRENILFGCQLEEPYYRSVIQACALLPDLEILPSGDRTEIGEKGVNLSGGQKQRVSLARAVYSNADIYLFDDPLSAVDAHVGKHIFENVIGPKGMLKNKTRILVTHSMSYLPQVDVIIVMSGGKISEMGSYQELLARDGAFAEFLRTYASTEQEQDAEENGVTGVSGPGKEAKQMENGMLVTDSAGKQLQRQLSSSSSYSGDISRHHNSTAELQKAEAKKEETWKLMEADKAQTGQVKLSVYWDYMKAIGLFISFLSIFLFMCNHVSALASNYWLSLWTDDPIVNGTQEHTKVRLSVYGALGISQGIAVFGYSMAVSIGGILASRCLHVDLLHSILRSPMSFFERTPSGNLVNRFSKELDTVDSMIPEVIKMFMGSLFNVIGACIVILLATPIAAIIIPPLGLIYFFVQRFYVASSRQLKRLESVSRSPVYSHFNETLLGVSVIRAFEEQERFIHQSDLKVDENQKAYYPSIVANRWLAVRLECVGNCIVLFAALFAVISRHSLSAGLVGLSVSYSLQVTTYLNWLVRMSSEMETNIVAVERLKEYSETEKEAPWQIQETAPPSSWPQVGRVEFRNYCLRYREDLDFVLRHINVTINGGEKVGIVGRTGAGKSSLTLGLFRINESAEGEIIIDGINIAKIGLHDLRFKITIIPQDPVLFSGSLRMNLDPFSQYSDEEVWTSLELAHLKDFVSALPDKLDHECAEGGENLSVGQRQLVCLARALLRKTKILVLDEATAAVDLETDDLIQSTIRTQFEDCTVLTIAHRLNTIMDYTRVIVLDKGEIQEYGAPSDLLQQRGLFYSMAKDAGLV
# Protocol: as §2, §1, §3
# ABCG2 [3] = target: T1, ABCG2; experiment: PG accumulation examined by confocal microscopy in PLB and PLB-ABCG2 cells; parameters: expressed in transfected cells; host or cells: PLB-985 cells (retroviral transduction); conditions: PLB-ABCG2 cells, 0.5 μM PGD, 30 minutes, no inhibitor
# Protocol: For confocal microscopy the cells (5×10^5) were washed twice with 1 mL DPBS, then pre-incubated with 1 μg/mL Alexa Fluor-647 conjugated wheat-germ agglutinin (WGA-A647) in uptake buffer for 5 minutes at room temperature. Thereafter the cells were incubated with 0.5 μM PGD with or without transporter inhibitors for 30 minutes at 37° C. PGD uptake was stopped by washing the cells with 1 mL DPBS. The images were acquired by a Zeiss LSCM 710 microscope using a 63×NA=1.4 Plan Apo objective. Images were captured and analyzed by Zen2 (Blue edition) Software.
# In order to examine the wider applicability of the PGD-based assay for functional ABCG2 transporter studies, we examined PG accumulation in control PLB cells and in PLB cells expressing ABCG2, by using fluorescence (confocal) microscopy.
# In these experiments, in order to label the plasma membrane compartment of the cells, we also included the staining of live PLB cells with a fluorescent anti-WGA antibody.
# ABCG2 [4] = target: T4, ABCG2 (Homo sapiens, UniProt Q9UNQ0, K86M); experiment: PhenGreen (PG) accumulation by flow cytometry, ABCG2-expressing PLB and A431 cells; conditions: PLB cells expressing ABCG2-K86M
# T4 construct: expressed in transfected cells; host or cells: PLB-985 and A431 cells (retroviral transduction)
# T4 sequence (Q9UNQ0 1-655 K86M): T1 sequence (Q9UNQ0 1-655) with K86M
# Protocol: as §2, §1, §3
# ABCG2 [5] = target: T1, ABCG2; experiment: Mitoxantrone (MX) accumulation by flow cytometry, ABCG2-expressing PLB and A431 cells; parameters: expressed in transfected cells; host or cells: PLB-985 and A431 cells (retroviral transduction); conditions: control and ABCG2 expressing PLB and A431 cells, 1 μM MX, 60 minutes
compound,measurement,setting,value
"CC(=O)Oc1cc2c(cc1Cl)C1(OC(=O)c3cc(C(=O)Nc4cc5cccnc5c5ncccc45)ccc31)c1cc(Cl)c(OC(C)=O)cc1O2 [PGD, PhenGreen SK diacetate]",transporter substrate activity in mononuclear cell populations,"[1]; granulocytes, monocytes and lymphocytes, 1 μM PGD, 30 minutes at 37° C.",active substrate in each cell type
same,MAF factor compared with other dyes,"[1]; monocytes, ABCG2, ABCB1 and ABCC1 with selective inhibitors",higher MAF factor than Calcein AM and mitoxantrone for each of the transporters
same,time in which the increase in cellular PG fluorescence saturated,"ABCG2 [2]; PLB cells, 0.5 to 2.5 μM PGD in the media, 37° C.",less than 30 minutes
same,effect of ABCG2 protein on accumulated PG fluorescence,"ABCG2 [2]; PLB vs PLB-ABCG2 cells, low (below 1 μM) PGD, 30 minutes at 37° C., flow cytometry",major difference in the amount of the accumulated PG fluorescence
same,"applicability for calculating the MDR activity factor, compared with mitoxantrone",ABCB1; ABCB1 expressing PLB cells,similarly or better applicable than MX
same,PG accumulation in ABCB1 expressing cells versus control parental cells,"ABCB1; PLB and A431 cells, 0.1-5 μM PGD, EDTA-DPBS, 30 minutes at 37° C.",significantly lower levels of PG than their control parental cells
same,effect of PG accumulation on cell growth,"PLB, HEK or A431 cells",no measurable effect on the growth of the cells
same,"applicability for calculating the MDR activity factor, compared with mitoxantrone",ABCC1; ABCC1 expressing HL-60 cells,similarly or better applicable than MX
same,PG accumulation in ABCC1 expressing cells versus control parental cells,"ABCC1; HL-60 and HEK cells, 0.1-5 μM PGD, EDTA-DPBS, 30 minutes at 37° C.",significantly lower levels of PG than their control parental cells
PhenGreen SK [PG],cytoplasmic PG accumulation (confocal microscopy),ABCG2 [3],practically did not accumulate PG
same,effect of non-functional catalytic mutant ABCG2-K86M on PG accumulation,ABCG2 [4],no effect on PG accumulation
same,MDR activity factor (MAF) from PG accumulation in absence or presence of Ko143,ABCG2 [2]; PLB cells expressing wild-type ABCG2,high activity level
"O=C1c2c(O)ccc(O)c2C(=O)c2c(NCCNCCO)ccc(NCCNCCO)c21 [MX, mitoxantrone]",MDR activity factor (MAF) based on MX extrusion,ABCG2 [5],essentially similar results as obtained by using PG accumulation
